Like-named read-outs stand apart in the source and are kept apart here.
Target: T1, AtHPPD (Arabidopsis thaliana, UniProt P93836)
T1 construct: gene HPD; recombinant enzyme supplied by Guangfu Yang research team; Fe(II) enzyme; PDB 1TFZ used for docking only
T1 sequence (P93836 1-445): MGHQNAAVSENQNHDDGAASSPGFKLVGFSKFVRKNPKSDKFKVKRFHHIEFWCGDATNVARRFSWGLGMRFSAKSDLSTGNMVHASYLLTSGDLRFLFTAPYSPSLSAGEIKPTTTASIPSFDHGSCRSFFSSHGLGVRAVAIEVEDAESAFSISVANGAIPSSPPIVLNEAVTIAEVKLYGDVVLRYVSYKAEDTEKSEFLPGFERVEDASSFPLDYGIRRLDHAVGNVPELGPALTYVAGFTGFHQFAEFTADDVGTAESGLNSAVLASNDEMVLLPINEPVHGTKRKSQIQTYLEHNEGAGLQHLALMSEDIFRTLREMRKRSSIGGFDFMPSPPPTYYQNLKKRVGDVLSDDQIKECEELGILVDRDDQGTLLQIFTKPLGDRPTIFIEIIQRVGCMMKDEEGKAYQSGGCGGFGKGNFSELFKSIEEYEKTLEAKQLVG
Experiment: HGD-coupled assay, maleylacetoacetate at […] nm
Format: biochemical

Row | IC50 (read-out: IC50) | SMILES | IC50
1 | – | CS(=O)(=O)c1ccc(C(=O)C2C(=O)CCCC2=O)c([N+](=O)[O-])c1 [Control 1, mesotrione] | 204 nM
2 | 2490 nM | Cc1cc(O)c(C(=O)/C=C/c2ccccc2)c(=O)o1 [compound 3881, 3-cinnamoyl-4-hydroxy-6-methyl-2H-pyran-2-one] | –

— article PMC5807903, “Combination of Virtual Screening Protocol by in Silico toward the Discovery of Novel 4-Hydroxyphenylpyruvate Dioxygenase Inhibitors” (Frontiers in Chemistry, 2018)
